The record followed here is patent US7074907B2, “Compound, process for producing the same and use thereof” (Nichirei Biosciences Inc., priority 2003, dated 2006).

A short description of assay [1]: Test for linoleic acid autooxidation inhibitory effect. The assay is classed as biochemical. The note with it: sample 0.01% (w/v) in ethanol, stored in darkness at 40° C., degree of oxidation after two weeks, FIGS. 1 and 2. The method, then: <Test for Linoleic Acid Autooxidation Inhibitory Effect> 2 ml of 2.5% (w/v) linoleic acid was mixed with 4 ml of a 0.05 M phosphate buffer (pH 7.0) to prepare a reaction liquid. The compound of the present invention was dissolved in 99.5% ethanol at a concentration of 0.01% (w/v) 2 ml of the resulting solution and 2 ml of distilled water were added to the reaction liquid to make the total volume to 10 ml, mixed, and placed in a brown threaded bottle to prepare a sample. A negative control was prepared by adding, to the reaction liquid, only 2 ml of 99.5% ethanol and 2 ml of distilled water, without adding anything else. […] The measurement was carried out by mixing 0.1 ml of a sample, 9.7 ml of 75% ethanol, and 0.1 ml of a 30% ammonium thiocyanate solution, adding 0.1 ml of 2×10^−2 M ferrous chloride (3.5% hydrochloric acid solution) thereto, and exactly 3 minutes later, measuring the absorbance at 500 nm. From the measured values, the difference in absorbance and the rate of autooxidation after two weeks were obtained. The same measurement was made with the blanks, and ΔAbsorbance=(Absorbance of Main Sample)−(Absorbance of Blank) was taken. The absorbance increases with oxidation of the sample, and after reaching the maximum, decreases with consumption of the sample to be oxidized. Thus earlier occurrence of the peak absorbance represents weaker antioxidative activity. […]

Assay [2] in a line: DPPH radical scavenging test. The assay is classed as biochemical. The note with it: concentration of the sample solution; acetate buffer pH 5.5, 30° C., 30 minutes, absorbance at 517 nm. The procedure: The antioxidative activity of the compound of not lower than 95% purity of the present invention prepared in Example 1 was evaluated using a stable radical, 1,1-diphenyl-2-picrylhydrazyl (DPPH).
To 1600 μl of 250 mM acetate buffer (pH=5.5), 1200 μl of ethanol and 400 μl of a sample (at an arbitrary concentration in ethanol) were mixed, and pre-incubated at 30° C. for 5 minutes. 800 μl of a 500 μM DPPH/ethanol solution was added, mixed, and left to stand at 30° C. for 30 minutes. Then the absorbance of the sample at 517 nm was measured.
A negative control was prepared by adding, instead of the sample solution, only ethanol to the reaction liquid without adding anything else. A positive control was prepared in the same way as for the present compound at the same concentration in ethanol, except that the present compound was replaced with α-tocopherol. From the measured absorbances, the radical scavenging ratio was calculated in accordance with the following formula. Scavenging ratio (%)=(1−[Absorbance of Sample]/[Absorbance of Control])×100
The scavenging ratios were measured with the sample concentration in the sample solution being changed stepwise, to determine the concentration of the sample solution at which the DPPH radical scavenging ratio was 50%. This concentration was taken as the 50% DPPH radical scavenged concentration. […]
A general note: Loss of DPPH colour is used to gauge radical scavenging.

Consider `O=C(O)c1cc(O)c(O)c(O)c1` [gallic acid], for which the “antioxidative activity (oxidation inhibitory effect on linoleic acid)” value in assay [1] is given as “weaker oxidation inhibitory effect on linoleic acid”.
As for `Cc1c(C)c2c(c(C)c1O)CC[C@@](C)(CCC[C@H](C)CCC[C@H](C)CCCC(C)C)O2` [α-tocopherol], in assay [2], the “50% DPPH radical scavenged concentration” value stood at 121.5 µg/mL.
